The target of assay [1] is T1, SIRT1 (Homo sapiens, UniProt Q96EB6).
T1 sequence (Q96EB6 1-747): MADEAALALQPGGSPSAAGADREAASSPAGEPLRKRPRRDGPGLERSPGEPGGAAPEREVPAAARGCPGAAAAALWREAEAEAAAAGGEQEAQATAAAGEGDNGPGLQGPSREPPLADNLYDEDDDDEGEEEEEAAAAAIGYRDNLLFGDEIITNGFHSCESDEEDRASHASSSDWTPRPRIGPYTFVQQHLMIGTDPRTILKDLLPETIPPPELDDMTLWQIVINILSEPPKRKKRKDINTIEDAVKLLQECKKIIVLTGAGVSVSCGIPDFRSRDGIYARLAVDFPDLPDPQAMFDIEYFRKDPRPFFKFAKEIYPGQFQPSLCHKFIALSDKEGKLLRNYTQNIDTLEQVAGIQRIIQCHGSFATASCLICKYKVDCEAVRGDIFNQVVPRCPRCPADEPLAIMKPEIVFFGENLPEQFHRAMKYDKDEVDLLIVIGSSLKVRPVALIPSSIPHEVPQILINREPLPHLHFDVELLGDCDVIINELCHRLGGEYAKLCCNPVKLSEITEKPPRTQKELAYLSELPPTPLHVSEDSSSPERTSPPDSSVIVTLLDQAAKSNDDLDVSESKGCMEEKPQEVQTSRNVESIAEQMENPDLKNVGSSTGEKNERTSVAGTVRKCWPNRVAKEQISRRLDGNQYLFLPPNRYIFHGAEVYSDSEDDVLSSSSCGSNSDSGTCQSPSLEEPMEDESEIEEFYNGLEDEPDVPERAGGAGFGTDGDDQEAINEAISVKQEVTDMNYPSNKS
Nature of the assay: Trp mass spectrometry assay of SIRT1 activity. It is filed as biochemical. The following applies: Trp assay; for Trp EC1.5 (μM): concentration giving 150% activation of SIRT1; for Emax: percent maximum fold activation, read-out: Trp % Fold Act. Put shortly: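 His-tagged SIRT1 expressed in E. coli BL21(DE3), 10 nM, incubated 25 min at 25° C. with 0.5 μM Ac-RHKK(Ac)W-NH2 peptide and 120 μM βNAD+ in 50 mM HEPES pH 7.5, […], 1 mM DTT, 0.05% BSA; formic acid stop. OAADPR or deacetylated peptide measured by mass spectrometry; EC1.5 and percent maximum activation versus DMSO control.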

For assay [2], the target named is T1, SIRT1. Nature of the assay: TAMRA based mass spectrometry assay of SIRT1 activity. It is filed as biochemical. The following applies: TAMRA assay; for TAMRA EC1.5 (μM): concentration giving 150% activation of SIRT1; for Emax: percent maximum fold activation, read-out: TAMRA % Fold Act. The gist of the method:
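Recombinant N-terminal His-tagged human SIRT1 (10 nM, E. coli) incubated 25 min at 25 °C with 0.5 μM 5TMR-labelled p53-derived acetyl-peptide and 120 μM βNAD+ in Tris-acetate pH 8 buffer with DTT and 0.05% BSA, compound at varying concentrations. Stopped with formic acid; deacetylated peptide or OAADPR measured by mass spectrometry relative to DMSO controls.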

This note sets out measurements from patent publication US9957271B2, “Substituted bicyclic aza-heterocycles and analogues as sirtuin modulators” (GlaxoSmithKline, LLC, priority 2012, dated 2018).

SMILES strings stand for the structures.

Consider `O=C(Nc1cnc2ccc(-c3ccccc3OC(F)(F)F)nn12)c1ncccn1` [Compound 315], for which, in assay [1], the “Trp EC1.5 (μM)” value is “B (EC1.5 1-25 μM)” and the Emax is at least 350%. In assay [2], the “TAMRA EC1.5 (μM)” value is given as “A (EC1.5<1 μM)” and the Emax was at least 350%.
For the compound `Cc1nc(C(=O)Nc2cnc3ccc(-c4ccccc4OC(F)(F)F)nn23)cs1` [Compound 317], in assay [1], the “Trp EC1.5 (μM)” value is “C (EC1.5>25 μM)” and the Emax was under 350%. Moreover, in assay [2], the “TAMRA EC1.5 (μM)” value was “A (EC1.5<1 μM)” and the Emax was at least 350%.
`Cc1cnc(C(=O)Nc2cnc3ccc(-c4ccccc4OC(F)(F)F)nn23)s1` [Compound 320]: in assay [1], the “Trp EC1.5 (μM)” value is on record as “B (EC1.5 1-25 μM)” and the Emax is under 350%. Also, in assay [2], the “TAMRA EC1.5 (μM)” value is “A (EC1.5<1 μM)” and the Emax is at least 350%.
Regarding `O=C(Nc1cnc2ccc(-c3ccccc3OC(F)(F)F)nn12)c1cccc(N2CCOCC2)n1` [Compound 321], in assay [1], the “Trp EC1.5 (μM)” value was “A (EC1.5<1 μM)” and the Emax is at least 350%. Further, in assay [2], the “TAMRA EC1.5 (μM)” value is “A (EC1.5<1 μM)” and the Emax was at least 350%.
Consider `O=C(Nc1cnc2ccc(-c3ccccc3OC(F)(F)F)nn12)c1cccc(OCC(O)CO)n1` (centres unmarked) [Compound 323], for which, in assay [1], the “Trp EC1.5 (μM)” value is listed as “A (EC1.5<1 μM)” and the Emax is at least 350%. Also, in assay [2], the “TAMRA EC1.5 (μM)” value was “A (EC1.5<1 μM)” and the Emax is at least 350%.
Consider `CCNc1cccc(NC(=O)c2cnc3ccc(-c4ccccc4Cl)nn23)n1` [Compound 326], for which, in assay [1], the “Trp EC1.5 (μM)” value was “A (EC1.5<1 μM)” and the Emax was under 350%. Further, in assay [2], the “TAMRA EC1.5 (μM)” value is “A (EC1.5<1 μM)” and the Emax is at least 350%.
For `CCNc1cccc(NC(=O)c2cnc3ccc(-c4ccccc4F)nn23)n1` [Compound 327], in assay [1], the “Trp EC1.5 (μM)” value is recorded as “A (EC1.5<1 μM)” and the Emax is under 350%. Besides, in assay [2], the “TAMRA EC1.5 (μM)” value was “A (EC1.5<1 μM)” and the Emax is at least 350%.
As for `N#Cc1ccccc1-c1ccc2ncc(NC(=O)c3cnccn3)n2n1` [Compound 329], in assay [1], the “Trp EC1.5 (μM)” value was “C (EC1.5>25 μM)” and the Emax was under 350%. Further, in assay [2], the “TAMRA EC1.5 (μM)” value is reported as “B (EC1.5 1-25 μM)” and the Emax was under 350%.
In the case of `N#Cc1ccccc1-c1ccc2ncc(NC(=O)c3cscn3)n2n1` [Compound 332], in assay [1], the “Trp EC1.5 (μM)” value is recorded as “C (EC1.5>25 μM)” and the Emax was under 350%. In assay [2], the “TAMRA EC1.5 (μM)” value was “B (EC1.5 1-25 μM)” and the Emax was under 350%.
Consider `N#Cc1ccccc1-c1ccc2ncc(NC(=O)c3nccs3)n2n1` [Compound 335], for which, in assay [1], the “Trp EC1.5 (μM)” value is on record as “B (EC1.5 1-25 μM)” and the Emax is under 350%. For the same compound, in assay [2], the “TAMRA EC1.5 (μM)” value is listed as “B (EC1.5 1-25 μM)” and the Emax was under 350%.
`N#Cc1ccccc1-c1ccc2ncc(NC(=O)c3cccc(N4CCC4)n3)n2n1` [Compound 338]: in assay [1], the “Trp EC1.5 (μM)” value is on record as “A (EC1.5<1 μM)” and the Emax was under 350%. In addition, in assay [2], the “TAMRA EC1.5 (μM)” value was “A (EC1.5<1 μM)” and the Emax was at least 350%.
Consider `N#Cc1ccccc1-c1ccc2ncc(NC(=O)c3cccc(OCC(O)CO)n3)n2n1` (centres unmarked) [Compound 339], for which, in assay [1], the “Trp EC1.5 (μM)” value is given as “A (EC1.5<1 μM)” and the Emax was under 350%. Besides, in assay [2], the “TAMRA EC1.5 (μM)” value was “A (EC1.5<1 μM)” and the Emax is at least 350%.
As to `CC1(COc2ccnc(NC(=O)c3cnc4ccc(-c5ccccc5C(F)(F)F)nn34)n2)COC1` [Compound 340], in assay [1], the “Trp EC1.5 (μM)” value is “A (EC1.5<1 μM)” and the Emax was at least 350%. Further, in assay [2], the “TAMRA EC1.5 (μM)” value is given as “A (EC1.5<1 μM)” and the Emax was at least 350%.
For `Cc1nc2ccc(-c3ccccc3Cl)nn2c1NC(=O)c1ccccn1` [Compound 346], in assay [1], the “Trp EC1.5 (μM)” value is given as “C (EC1.5>25 μM)” and the Emax was under 350%. For the same compound, in assay [2], the “TAMRA EC1.5 (μM)” value is “B (EC1.5 1-25 μM)” and the Emax is under 350%.
